In patent US20040082600A1, “Pharmaceutical composition” (priority 2001, published 2004):
Converted amounts (≈) assume the structure as drawn. Like-named read-outs stand apart in the source and are kept apart here.

Test: Solubility in aqueous media
Assay type: physicochemical
Description: The compounds mentioned at the outset and pharmaceutically usable salts thereof, such as, for example, ethanolamine salts thereof, have low solubilities in aqueous media. […] These poor solubilities have the consequence that the compound can only be taken up slowly and to an inadequate extent by the body. This is associated with poor bioavailability and a slow increase in the concentration in the blood.

solubility (aqueous buffer, phosphate buffer (pH 1.0), read-out: solubility): 0.022 µg/mL (≈ 0.0456 µM) | solubility (aqueous buffer, phosphate buffer (pH 6), read-out: solubility): 0.0016 µg/mL (≈ 0.00332 µM) | solubility (aqueous buffer, phosphate buffer (pH 7.0), read-out: solubility): 0.019 µg/mL (≈ 0.0394 µM) | solubility (synthetic gastric juice): 1 mg/100 ml | solubility (synthetic intestinal juice): 6 mg/100 ml
SMILES: COc1ccc(CNc2nc(C3CCC(C(=O)O)CC3)nc3sc4ccccc4c23)cc1Cl (centres unmarked) [4-[4-(3-Chloro-4-methoxybenzylamino)benzo[4,5]thieno[2,3-d]pyrimidin-2-yl]cyclohexanecarboxylic acid]
